# Data from US20240124503A1, “HETEROAROMATIC PHOSPHONIUM SALTS AND THEIR USE TREATING CANCER” (FLORATEK PHARMA S.A., priority 2021, published 2024).
# Read-outs that look alike come from different tables or passages of the source.
# Experiments:
# Assay type in all cases: cell-based
# CH-17-0098 = assay: Cell viability, bile duct PDX CH-17-0098
# Procedure: (§1) PDX-derived cell cultures were obtained from tumors explanted from mice and isolated by mechanical and enzymatic dissociation. […] Cells were harvested and seeded in 96-wells plates at a density of 1.25 to 5×10^3 cells/well for cytotoxicity assays. Cells were incubated 48 h at 37° C. prior to addition of test molecules and vehicle (DMSO, 0.1%) at desired final concentrations. Cell viability was assessed before drugs' addition (To) and 5 days after test molecules addition by measuring ATP cell content using CellTiter-Glo® Luminescent Cell Viability Assay (Promega) according to the manufacturer's instructions. Luciferase activity was measured on a luminometer (PerkinElmer® EnVision™). Each concentration of compounds was tested in triplicate.
# (§2) Viability was calculated as a percentage of ATP value compared to vehicle treated controls.
# (§3) For PDX primary cell cultures, the tumour tissue was washed with PBS containing antibiotic-antimycotic and non-tumour tissue and necrotic tumour tissues were separated. The tumour tissue was transferred to a new dish and cut into 1˜2 mm^3 fragments, resuspended in RPMI-1640 medium and centrifuged at 1,200 rpm for 6 min at room temperature. The pelleted material was resuspended with 15 mL of Tumour Cell Digestion Solution and incubated at 37° C. for 1 hour with agitation. […]
# SF-268 = assay: Cell viability assay, SF-268; conditions: brain carcinoma cell line SF-268
# Procedure: (§4) Antitumor activity of the compounds and doxorubicin as a positive control was assessed by using the CellTiter-Blue Cell Viability Assay (Promega, #G8082) or CellTiter-Glow® Luminescent Cell Viability assay (Promega #G7572) according to the manufacturer's instructions. The compounds were tested at 5 or 6 concentrations in half-log increments (highest concentration 30 μM or 100 μM) in duplicate or triplicate well conditions.
# (§5) Tumor cells were grown at 37° C. in a humidified atmosphere with 5% CO2 in RPMI 1640 or DMEM medium, supplemented with 10% (v/v) fetal calf serum and 50 μg/ml gentamicin for up to 20 passages, and were passaged once or twice weekly. Cells were harvested using TrypLE or PBS buffer containing 1 mM EDTA, and the percentage of viable cells was determined using a CASY Model TI cell counter (OMNI Life Science). Cells were harvested from exponential phase cultures, counted and plated in 96 well flat-bottom microtiter plates at a cell density depending on the cell line's growth rate (4,000-20,000 cells/well depending on the cell line's growth rate, up to 60,000 for hematological cancer cell lines) in RPMI 1640 or DMEM medium supplemented with 10% (v/v) fetal calf serum and 50 μg/ml gentamicin (140 μl/well). […] Viability of cells was quantified by the CellTiter-Blue® cell viability assay (Promega G8081) or CellTiter-Glow® Luminescent Cell Viability assay (Promega #G7572). […]
# MCF-7 = assay: Cell viability assay, MCF-7; conditions: breast carcinoma cell line MCF-7
# Procedure: as §4, §5
# MDA-MB-468 = assay: Cell viability assay, MDA-MB-468; conditions: breast carcinoma cell line MDA-MB-468
# Procedure: as §4, §5
# BR-05-0014E = assay: Cell viability, breast PDX BR-05-0014E
# Procedure: as §1, §2, §3
# HCT-116 = assay: Cell viability assay, HCT-116; conditions: colon carcinoma cell line HCT-116
# Procedure: as §4, §5
# CO-04-0701 = assay: Cell viability, colon PDX CO-04-0701
# Procedure: as §1, §2, §3
# CO-04-0700 = assay: Cell viability, colon PDX CO-04-0700
# Procedure: as §1, §2, §3
# EN-11-0101 = assay: Cell viability, endometrial PDX EN-11-0101
# Procedure: as §1, §2
# (§6) For PDX primary cell cultures, the tumour tissue was washed with PBS containing antibiotic-antimycotic and non-tumour tissue and necrotic tumour tissues were separated. The tumour tissue was transferred to a new dish and cut into 1˜2 mm^3 fragments, resuspended in RPMI-1640 medium and centrifuged at 1,200 rpm for 6 min at room temperature. The pelleted material was resuspended with 15 mL of Tumour Cell Digestion Solution and incubated at 37° C. for 1 hour with agitation. Following further addition of media, centrifugation and passage through a 70 μm cell strainer, the homogenous cell mixture was layered onto 15 mL of Ficoll-Paque PLUS in a 50 mL conical tube and centrifuged for 15 min at 1,600 rpm. The interface cells were collected, washed with media, separated by centrifugation at 1,200 rpm. The cell pellet was resuspended in serum free media supplemented with growth factors. 10,000 cells/wells were plated in a 96 well plate and incubated at 37° C., 5% CO2, 95% air and 100% relative humidity overnight. The cytotoxicity assay was conducted as above.
# (§7) Sigmoidal concentration-response curves were fitted to the data points (test-versus-control, T/C values) obtained for each tumor model using GraphPad prism 5.02 software.
# ES-06-0122 = assay: Cell viability, esophagus PDX ES-06-0122
# Procedure: as §1, §2, §3
# KI-12-0062 = assay: Cell viability, kidney PDX KI-12-0062
# Procedure: as §1, §2, §6, §7
# LU-01-0025 = assay: Cell viability, lung PDX LU-01-0025
# Procedure: as §1, §2, §3
# LY-24-0340 = assay: Cell viability, lymphoma PDX LY-24-0340
# Procedure: as §1, §2, §6, §7
# OVCAR-3 = assay: Cell viability assay, OVCAR-3; conditions: ovarian carcinoma OVCAR-3
# Procedure: as §4, §5
# PC-07-0059 = assay: Cell viability, pancreatic PDX PC-07-0059
# Procedure: as §1, §2, §3
# PC-3 = assay: Cell viability assay, PC-3; conditions: prostate carcinoma cell line PC-3
# Procedure: as §4, §5
# ONCap = assay: Cell viability assay, ONCap; conditions: prostate carcinoma cell line ONCap
# Procedure: as §4, §5
# ME-21-0028 = assay: Cell viability, skin melanoma PDX ME-21-0028
# Procedure: as §1, §2, §6, §7
# ST-02-0173 = assay: Cell viability, stomach PDX ST-02-0173
# Procedure: as §1, §2, §3
# [1] = endometrial PDX EN-11-0101, read-out: IC50
# [2] = kidney PDX KI-12-0062, read-out: IC50
# [3] = lymphoma PDX LY-24-0340, read-out: IC50
# [4] = skin melanoma PDX ME-21-0028, read-out: IC50
SMILES,IC50 (CH-17-0098),IC50 (BR-05-0014E),IC50 (CO-04-0701),IC50 (CO-04-0700),IC50 (EN-11-0101; [1]),IC50 (ES-06-0122),IC50 (KI-12-0062; [2]),IC50 (LU-01-0025),IC50 (LY-24-0340; [3]),IC50 (PC-07-0059),IC50 (ONCap),IC50 (ME-21-0028; [4]),IC50 (ST-02-0173),further results
"COc1c(O)ccc2c(=O)c(O)c(-c3ccc(CCCC[P+](c4ccccc4)(c4ccccc4)c4ccccc4)cc3)oc12 [SND190, (4-(4-(3,7-Dihydroxy-8-methoxy-4-oxo-4H1-chromen-2-yl)phenyl)butyl)triphenylphosphonium bromide]",4 µM,6.6 µM,14.7 µM,2.4 µM,7.9 µM,6.5 µM,15.1 µM,0.6 µM,3.8 µM,2.3 µM,1.5 µM,2.2 µM,11 µM,"IC50 (SF-268; Homo sapiens): 4.1 µM; IC50 (MCF-7; Homo sapiens, MCF7): 3.91 µM; IC50 (MDA-MB-468; Homo sapiens): 0.3 µM; IC50 (HCT-116; Homo sapiens): 0.81 µM; IC50 (EN-11-0101; Table 8, read-out: IC50, endometrial PDX growth): < 20 µM; IC50 (KI-12-0062; text summary of Table 11 (kidney PDX), read-out: IC50, kidney PDX growth): < 20 µM; IC50 (LY-24-0340; Table 16, read-out: IC50, lymphoma PDX growth): < 5 µM; IC50 (OVCAR-3; Homo sapiens): 3.81 µM; IC50 (PC-3; Homo sapiens): 1.69 µM; IC50 (ME-21-0028; text summary of Table 21, read-out: IC50, skin melanoma PDX growth): < 20 µM"
"O=c1cc(-c2ccc(CCC[P+](c3ccccc3)(c3ccccc3)c3ccccc3)cc2)oc2c(O)c(O)ccc12 [SND200, (3-(4-(7,8-Dihydroxy-4-oxo-4H1-chromen-2-yl)phenyl)propyl)triphenylphosphonium bromide]",7.5 µM,19 µM,15.1 µM,7.6 µM,10.4 µM,8.8 µM,14.5 µM,4.9 µM,4 µM,6.7 µM,0.52 µM,10.9 µM,15.5 µM,IC50 (SF-268): 7.83 µM; IC50 (MCF-7): 1.68 µM; IC50 (MDA-MB-468): 0.3 µM; IC50 (HCT-116): 1.48 µM; IC50 (OVCAR-3): 1.6 µM; IC50 (PC-3): 0.3 µM
